Source: ChEMBL document CHEMBL1124742 (J Med Chem, 1990)

Legend:
[1] = test system: CHO-AA8; assay: In vitro cytotoxicity against transformed chinese hamster fibroblast line AA8; format: functional, cell-based; conditions: Cricetulus griseus
[2] = test system: UV4; assay: In vitro cytotoxicity against transformed chinese hamster fibroblast line UV4.; format: functional, cell-based; conditions: Cricetulus griseus
[3] = species: Cricetulus griseus; assay: Hypersensitivity factor(HF) was determined from the ratio of IC50(AA8) / IC50(UV4); format: functional
[4] = test system: P388; assay: In vitro cytotoxicity against P388 murine leukemia; format: functional, cell-based; conditions: Mus musculus
[5] = Evaluated for the mustard reactivity by determining rate constant for hydrolysis of mustard in aqueous acetone (K H); format: ADME; conditions: buffer
[6] = test system: CHO-AA8; assay: (§1) Tested for the in vitro cytotoxicity against transformed chinese hamster fibroblast line AA8; format: functional, cell-based; conditions: Cricetulus griseus
[7] = Evaluated for the mustard reactivity by determining rate constant for alkylation of 4-(4-nitrobenzyl)pyridine using NBP alkylation assay; format: ADME
[8] = test system: UV4; assay: Tested for the in vitro cytotoxicity against transformed chinese hamster fibroblast line UV4.; format: functional, cell-based; conditions: Cricetulus griseus
[9] = test system: P388; assay: Optimal dose of drug administered as a single dose in 0.1 or 0.2 mL of 30% v/v ethanol/water on day one after ip inoculation of 10e6 P388 leukemia cells; format: functional, Mus musculus
[10] = test system: P388; assay: In vivo percentage increase in lifespan of drug treated tumor-bearing mice at a dose of 45 mg/kg; format: functional; conditions: Mus musculus
[11] = test system: P388; assay: In vivo percentage increase in lifespan of drug treated tumor-bearing mice at a dose of 20 mg/kg; format: functional; conditions: Mus musculus
[12] = test system: P388; assay: Tested for the in vitro cytotoxicity against P388 murine leukemia; format: cell-based; conditions: Mus musculus
[13] = test system: P388; assay: In vivo percentage increase in lifespan of drug treated tumor-bearing mice at a dose of 225 mg/kg; format: functional; conditions: Mus musculus
[14] = test system: CHO-AA8; assay: as §1; format: cell-based; conditions: Cricetulus griseus
[15] = test system: P388; assay: In vivo percentage increase in lifespan of drug treated tumor-bearing mice at a dose of 13.3 mg/kg; format: functional; conditions: Mus musculus

Compound | IC50 [1] | IC50 [2] | Ratio [3] | IC50 [4] | K H [5] | IC50 [6] | K NBP [7] | IC50 [8] | OD [9] | ILS at 45 mg/kg [10] | ILS at 20 mg/kg [11] | IC50 [12] | ILS at 225 mg/kg [13] | IC50 [14] | ILS at 13.3 mg/kg [15]
CCN(CC)CCCC(C)Nc1c2ccc(Cl)cc2nc2ccc(OC)cc12 (stereo not drawn) [QUINACRINE] | 1700 nM | 140 nM | 11.5 | – | – | – | – | – | – | – | – | – | – | – | –
O=S(=O)(CCCCCNc1c2ccccc2nc2ccccc12)c1ccc(N(CCCl)CCCl)cc1 | – | – | 1 | 640 nM | 2800 s⁻¹ | 570 nM | 500 s⁻¹ | 570 nM | 45 mg/kg | 33% | – | – | – | – | –
ClCCN(CCCl)c1ccc(OCCCCCNc2c3ccccc3nc3ccccc23)cc1 | 210 nM | 5 nM | 46 | 40 nM | 100000 s⁻¹ | – | 115000 s⁻¹ | – | 20 mg/kg | – | 28% | – | – | – | –
O=C(O)CCCc1ccc(N(CCCl)CCCl)cc1 [CHLORAMBUCIL] | – | 600 nM | 58 | – | – | – | – | – | 225 mg/kg | – | – | 6750 nM | 37% | 26000 nM | –
O=C(CCCCCNc1c2ccccc2nc2ccccc12)c1ccc(N(CCCl)CCCl)cc1 | 3510 nM | 593 nM | 5.9 | 330 nM | 1100 s⁻¹ | – | 1800 s⁻¹ | – | 65 mg/kg | – | – | – | – | – | –
O=C(NCCCCNc1c2ccccc2nc2ccccc12)c1ccc(N(CCCl)CCCl)cc1 | 3700 nM | 673 nM | 5.5 | 510 nM | 25700 s⁻¹ | – | 171000 s⁻¹ | – | 20 mg/kg | – | – | – | – | – | –
ClCCN(CCCl)c1ccc(CCCCCCNc2c3ccccc3nc3ccccc23)cc1 | 530 nM | 15 nM | 36 | 130 nM | 33900 s⁻¹ | – | 157000 s⁻¹ | – | 13.3 mg/kg | – | – | – | – | – | 22%
ClCCN(CCCl)c1ccc(SCCCCCNc2c3ccccc3nc3ccccc23)cc1 | 710 nM | 37 nM | 19 | 360 nM | 5900 s⁻¹ | – | 16900 s⁻¹ | – | 45 mg/kg | 23% | – | – | – | – | –
O=C(CCCCNc1c2ccccc2nc2ccccc12)Nc1ccc(N(CCCl)CCCl)cc1 | 900 nM | 80 nM | 11.3 | 3200 nM | 2900 s⁻¹ | – | 2500 s⁻¹ | – | 45 mg/kg | 58% | – | – | – | – | –
